Assay results as given in patent US6426317B1, “Stable, high available halogen 1,3,5-triazine-2,4,6-trione compositions having rapid dissolution rates” (Great Lakes Chemical Corporation, priority 1999, dated 2002).

Experiments:
[1] = Total chlorine in synthetic pool water exposed to environmental UV light (Example 7); type: physicochemical; parameters: unit not given here
[2] = NFPA scale from 1 to 4, NFPA 430, 1995 edition; cited from earlier work
[3] = in water at 20° C.; cited from earlier work
[4] = Off-gassing of roll-compacted granules contaminated with water (Examples 4-6); type: physicochemical; details: Table 9; Example 6
[5] = for effect of additive on off-gassing of trichloroisocyanuric acid: Example 1, 25.5% additive
[6] = Solubility (15-minute dissolution) of granules in balanced swimming pool water, thiosulfate titration; details: Table 9; Example 6
[7] = Off-gassing of granular formula compositions (Example 3); type: physicochemical; details: Example 3, granules
Method: The formula compositions produced in this example were tested for their stability and in some cases for their solubility. The components used included a dissolution aid: disodium cyanurate, and a disintegration agent: microcrystalline cellulose, Lattice® NT (FMC).
Again, blended powder samples were prepared for each formula composition. A 20-gram sample of each test formula composition was placed in a 2.0 inch diameter dye-punch set and compressed under 22 tons of force for 60 minutes using a Carver press. The compressed wafer was reduced to granules using a spatula and a mortar and pestle set. Properly sized granules were collected using a standard sieve shaker.
Approximately one gram of each granular formula composition sample was placed in an eight-ounce sample container. […] The containers were vapor sealed and carefully placed in an approximately 50° C. oven for 24 hours. After the sample set was removed from the oven and cooled, a one-ml aliquot from each sample was placed in 50 ml of deionized water and titrated with 0.100 N sodium thiosulfate. The volume of thiosulfate reagent used to titrate the available halogen in the KI solution was recorded.

For `[Ca+2].[O-]Cl.[O-]Cl` [Calcium hypochlorite, calcium hypochlorite], the “Total Cl” value ([1]; sampling time 0:00 (Hr:Min), 10 ppm available halogen added, outdoor UV light) was 0.02, the “Total Cl” value ([1]; sampling time 0:05) was 6.8 and the “Total Cl” value ([1]; sampling time 0:10) was 6.8. The “Total Cl” value ([1]; sampling time 0:15) was 7.2, the “Total Cl” value ([1]; sampling time 0:20) was 6.8 and the “Total Cl” value ([1]; sampling time 0:25) was 6.0. For the same molecule, the “Total Cl” value ([1]; sampling time 0:30) was 5.1, the “Total Cl” value ([1]; sampling time 0:40) was 5.0 and the “Total Cl” value ([1]; sampling time 0:50) was 3.3. For the same molecule, the “Total Cl” value ([1]; sampling time 1:00) was 3.5, the “Total Cl” value ([1]; sampling time 1:15) was 2.2 and the “Total Cl” value ([1]; sampling time 1:30) was 2.6. For the same molecule, the “Oxidizer Rating” value [2] was 3 and the Solubility [3] was “≅22^3 g/100g (%)”.
In the case of `[Li+].[O-]Cl` [Lithium hypochlorite], the “Oxidizer Rating” value [2] is listed as 2 and the Solubility [3] is listed as “≅43^3 g/100g (%)”.
For `O=c1[n-]c(=O)n(Cl)c(=O)n1Cl.[K+]` [Potassium dichloroisocyanurate anhydrous, potassium dichloroisocyanurate], the “Oxidizer Rating” value [2] is listed as 3 and the Solubility [3] is listed as 5.0^4 g/100g (%).
For `O=c1nc([O-])n(Cl)c(=O)n1Cl.[Na+]` [Sodium dichloroisocyanurate anhydrous, sodium dichloroisocyanurate], the “Oxidizer Rating” value [2] is given as 3 and the Solubility [3] is given as 12.5^4 g/100g (%).
In the case of `O=c1n(Cl)c(=O)n(Cl)c(=O)n1Cl` [Trichloroisocyanuric acid, 1,3,5-trichloro-1,3,5-triazine-2,4,6-trione], the “Off-Gassing Titrant Volume” value [4] is listed as 2.00 mL, the “Titrant Volume (off-gassing)” value ([5]; Table 1, compressed powder wafer, 5 ml 15% KI, approximately 50° C., 24 hours, 0.100 N sodium thiosulfate) is listed as 2.65 mL and the “Oxidizer Rating” value [2] is listed as 1. The Solubility [3] was 1.2^4 g/100g (%) and the “Solubility Titrant Volume” value [6] was 1.90 mL.
For `OB(O)O` [boric acid], the “effect of additive on off-gassing of trichloroisocyanuric acid” value [5] was “do not significantly affect the off-gassing profile of trichloroisocyanuric acid”.
With `O=c1nc([O-])nc([O-])[nH]1.[Na+].[Na+]` [disodium cyanurate, disodium salt of 1,3,5-triazine-2,4,6-trione] the “effect of additive on off-gassing” value [7] was “do not significantly affect the off-gassing profile”.
In the case of `O=C([O-])O.[Na+]` [sodium bicarbonate], the “effect of additive on off-gassing of trichloroisocyanuric acid” value [5] is reported as “increase gassing significantly”.
